Experimental data reported in patent publication US5916906A, “Compositions comprising nicotinylalanine and an inhibitor of glycine conjugation or vitamin B6” (priority 1997, dated 1999).
Where two headings read alike, the source gives them in different places.

How the values were obtained:
[1] = Hematocrit of LP-BM5 infected mice (hematopoietic toxicity); type: in vivo, C57BL/6 mice; settings: for Mean Hematocrit: virus-positive, NAL 400 mg/kg, ASA 20 mg/kg, AZT printed 1 mg/kg
Method: (§1) Disease progression was monitored by measuring serum IgM levels by ELISA on all animals at monthly intervals during the course of disease. Three mice per group were randomly selected and sacrificed at monthly intervals (end of month one through four) of the study. Disease scores for each animal were recorded weekly based upon palpation of lymph nodes and spleen. Complete gross necropsies were performed on these euthanized animals and the ratio of recorded spleen to body weights was an additional indicator of diseases progression. […] Infection was quantified by ecotropic virus XC plaque assays of spleens removed from the interim sacrificed animals. The study was to be terminated when mice were either dead or disease scores were +4 in more than 50% of the vehicle-treated MAIDS controls (Group 1), which occurred at 19 weeks post-inoculation of the virus pool. However, as the remaining mice in Group 1 were slow to progress towards more severe disease (FIG. 5) or death (FIG. 6), the study was extended until a termination date of 28 weeks post-inoculation.
Mice were maintained through the fifth month post virus inoculation until

[2] = Toxicity observations and necropsy in LP-BM5 infected mice; type: in vivo, C57BL/6 mice
Method: as §1

LP-BM5 MuLV Retrovirus = settings: cited from earlier work
[3] = Plasma pharmacokinetics of nicotinylalanine after i.v., i.p. and oral administration; type: in vivo, C57BL/6 mice; settings: for bioavailability / half-life / Tmax: 400 mg/kg; for Tmax: read-out: Time of peak plasma level of NAL (converted); for k el: read-out: Ke (converted)
Method: The purpose of this study was to determine the plasma pharmacokinetics of nicotinylalanine in fasted, female C57BL/6 mice after intravenous (i.v.), intraperitoneal (i.p.), and oral (p.o.) administration of equivalent doses of nicotinylalanine at 400 mg/kg body weight. The analytic methods used in these studies were the same as described in Example 1 and Table 1 for Metabolic Studies.
Bioavailability of nicotinylalanine after p.o. and i.p. administration was determined by comparison of the areas under the plasma time curves with the area under the plasma time curve for the i.v. administration of an equivalent dose at 400 mg/kg into the tail vein. Time points were evaluated from five minutes to 1,440 minutes (24 hours) after dosing, although the rapid pharmacokinetics under each dosing regimen focused the time parameters to less than six hours.
Although there are several compartmental analyses which could be used to model the pharmacokinetic data, for derivation of pharmacokinetic parameters a simple non-compartmental analysis was selected. The computer program used to generate the parameters (Table 5) and for fitting the curves (FIGS. 7, 8) was the Lagran Program using the Lagrange Function. See, Rocci M. L. and Jusko W. J. 1983, "Lagran Program for Area and Moments in Pharmacokinetic Analysis", Comp. Prog. Biomed. 16, 203-212; and Yeh K. C. and Quan K. C. 1978, "A Comparison of Numerical Integrating Algorithms by Trapezoidal Lagrange and Spline Approximations", J. Pharmacokinet. Biopharmacol. 6, 79-93.

[4] = Urinary N-methylnicotinamide in rats treated with nicotinylalanine (literature); type: in vivo; settings: following nicotinylalanine injection, inferred from urinary N-methylnicotinamide
Text: As discussed above, these benefits of nicotinylalanine treatment are applicable to other diseases besides neurodegeneration. R. H. Decker, et al. (ibid) reported a 4-5 fold increase in N-methylnicotinamide levels in the urine of rats treated with nicotinylalanine. Since N-methylnicotinamide is a major urinary excretion product of nicotinamide in the rat, increases in the endogenous levels of nicotinamide following nicotinylalanine injection are at least 5 fold.

[5] = Behavioral toxicity, chronic i.p. dosing in mice; type: in vivo, C57BL/6 mice; settings: chronic i.p. racemic NAL 400 mg/kg, more than four months
Method: Results from studies in a mouse model of AIDS (i.e., the LP-BM5 strain of murine leukemia virus-induced murine acquired immunodeficiency syndrome, MAIDS) are consistent with efficacy of a parenteral dose in humans of nicotinylalanine (isomer) between about 100 and 200 mg/kg body weight per day in combination with aspirin at about 20 mg/kg per day. […] Connick J. H., et al., Gen. Pharmac., 23:235-239, 1992. […] Vague P., et al., Lancet, I:619-620, 1987. This is consistent with the lack of toxicity reported for NAm in other human studies. (Hoffer A., Schizophrenia, 1:78-87, 1969).

[6] = rats treated with nicotinylalanine (Decker); cited from earlier work
[7] = acute 500 mg/kg racemic NAL (Connick 1992); cited from earlier work
[8] = within the first month of dosing

Cc1cn([C@H]2C[C@H](N=[N+]=[N-])[C@@H](CO)O2)c(=O)[nH]c1=O [AZT, 3'azido-3'deoxythymidine, reference compound]
Mean Hematocrit ([1]; Month 1 (10 bled)): 41.7 ± 4.0%
Mean Hematocrit ([1]; Month 2 (10 bled)): 42.7 ± 2.4%
Mean Hematocrit ([1]; Month 3 (7 bled)): 41.9 ± 1.7%
Mean Hematocrit ([1]; Month 4 (11 bled)): 42.6 ± 3.0%
Mean hematocrit over the four months sampled ([1]; NAL plus AZT (Group 5), AZT alone (Group 7)): ~42.6%
Hematopoietic toxicity ([1]; one-month interim assessment, AZT in drinking water): hematopoietic toxicity was already manifest
Deaths prior to termination of the study ([2]; 28-week study): one mouse
Necropsy finding in mice that died ([2]; Groups 4 and 7): distended food filled small and large intestines
Side-effect: melaninization [2, 8]: melaninization of extremities, tail, and ears
Side-effect: red-blood cell [2, 8]: red-blood cell toxicities
Disease progression (in words) (LP-BM5 MuLV Retrovirus; AZT 0.1 mg/kg (Eiseman 1991)): still delayed disease progression
Control of LP-BM5 disease (in words) (LP-BM5 MuLV Retrovirus; AZT 0.5 mg/kg in drinking water, chronic (Eiseman 1991)): effective in controlling LP-BM5 disease

NC(CC(=O)c1cccnc1)C(=O)O (racemic) [NAL, γ-(3-pyridyl)-γ-oxo-α-aminobutyrate]
Effect on decreased hematocrit (in words) ([1]; mouse, in vivo): protective effect
CL ([3]; NAL 400 mg/kg, i.p., fasted female mice): 31.6
CL ([3]; NAL 400 mg/kg, p.o., fasted female mice): 50.2
Volume of distribution (Vdss), in words ([3]; especially in the oral dosage form): consistent with a compound well-distributed in aqueous compartments
Bioavailability i.p. versus i.v. or oral, in words ([3]; i.p. compared to i.v. or oral): apparently greater however when the i.p. route is used
bioavailability ([3]; mouse, plasma, ip, NAL 400 mg/kg, i.p., fasted female mice, read-out: F (fraction bioavailable)): 183%
half-life ([3]; mouse, plasma, ip, NAL 400 mg/kg, i.p., fasted female mice, read-out: t1/2): 24.9 min
half-life ([3]; mouse, plasma, ip, i.p., read-out: t1/2 (half-life of plasma nicotinylalanine)): ~25 min
Tmax ([3]; mouse, plasma, ip): ~5 min
k el ([3]; mouse, plasma, ip, NAL 400 mg/kg, i.p., fasted female mice): 0.000463 s⁻¹
Vd/F ([3]; mouse, plasma, ip, NAL 400 mg/kg, i.p., fasted female mice, read-out: Vdss): 0.821 L/kg
half-life ([3]; mouse, plasma, iv, NAL 400 mg/kg, i.v., fasted female mice, read-out: t1/2): 40.2 min
half-life ([3]; mouse, plasma, iv, i.v., read-out: t1/2 (half-life of plasma nicotinylalanine)): ~40 min
Tmax ([3]; mouse, plasma, iv): ~5 min
clearance ([3]; mouse, plasma, iv, NAL 400 mg/kg, fasted female mice): 57.3 mL/min/kg
k el ([3]; mouse, plasma, iv, NAL 400 mg/kg, i.v., fasted female mice): 0.000287 s⁻¹
Vd ([3]; mouse, plasma, iv, NAL 400 mg/kg, i.v., fasted female mice, read-out: Vdss): 1.33 L/kg
bioavailability ([3]; mouse, plasma, po, NAL 400 mg/kg, p.o., fasted female mice, read-out: F (fraction bioavailable)): 105%
half-life ([3]; mouse, plasma, po, NAL 400 mg/kg, p.o., fasted female mice, read-out: t1/2): 58.7 min
bioavailability ([3]; mouse, plasma, po, oral dose, read-out: fraction bioavailable (F)): ~100%
half-life ([3]; mouse, plasma, po, oral, read-out: t1/2 (half-life of plasma nicotinylalanine)): ~60 min
k el ([3]; mouse, plasma, po, NAL 400 mg/kg, p.o., fasted female mice): 0.000197 s⁻¹
Vd/F ([3]; mouse, plasma, po, NAL 400 mg/kg, p.o., fasted female mice, read-out: Vdss): 3.35 L/kg
Tmax ([3]; mouse, plasma, oral gavage): ~10 min
Nicotinamide plasma level versus control ([3]; oral NAL 400 mg/kg, transient): about twice control
t1/2 oral versus i.p. ([3]; oral compared with i.p. dose): approximately twice as long
t1/2 oral versus i.v. ([3]; oral compared with i.v. dose): approximately one and a half (11/2) times as long
Increase in endogenous nicotinamide levels [4]: at least 5 fold
Behavioral toxicity [5]: not been associated with obvious behavioral toxicity
Increase in N-methylnicotinamide levels in urine [6]: 4-5 fold
Behavioral effects [7]: not to result in any behavioral effects
